{"source": "patent US12195427B2", "about": "“MASP-2 inhibitors and methods of use” (priority 2018, dated 2025)", "biological_target": "MASP-2 CCP2-SP (Homo sapiens (Human), UniProt O00187)", "sequence (O00187 445-686)": "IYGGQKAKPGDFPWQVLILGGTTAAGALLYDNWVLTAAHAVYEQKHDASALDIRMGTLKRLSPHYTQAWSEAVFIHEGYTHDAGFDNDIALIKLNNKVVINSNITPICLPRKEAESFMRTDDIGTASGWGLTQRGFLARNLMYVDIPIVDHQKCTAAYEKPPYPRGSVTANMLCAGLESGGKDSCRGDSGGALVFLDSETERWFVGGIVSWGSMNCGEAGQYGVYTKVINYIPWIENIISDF", "sequence (O00187 364-432 partner)": "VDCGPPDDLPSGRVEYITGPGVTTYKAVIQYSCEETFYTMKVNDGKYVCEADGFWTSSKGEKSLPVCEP", "assay": "MASP-2 co-crystallization, X-ray crystallography and structure analysis (H-bonds, van der Waals contacts);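 as to Ligand-pharmacophore element distance, pharmacophore element C2: distance from averaged pharmacophore element to bound ligand; missing value means element absent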;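 as to Ligand-pharmacophore element distance, pharmacophore element C3: distance from averaged pharmacophore element to bound ligand; missing value means element absent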;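 as to Ligand-pharmacophore element distance, pharmacophore element C4: distance from averaged pharmacophore element to bound ligand; missing value means element absent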;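 as to Ligand-pharmacophore element distance, pharmacophore element C5: distance from averaged pharmacophore element to bound ligand; missing value means element absent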", "parameters": "van der Waals contact distance, MASP-2 HIS 483 atom CD2 / van der Waals contact distance, MASP-2 HIS 483 atom NE2 / van der Waals contact distance, SER 654 C to compound atom / van der Waals contact distance, SER 654 O to compound atom / van der Waals contact distance, TRP 655 C to compound atom / van der Waals contact distance, MASP-2 GLY 528 atom CA / van der Waals contact distance TRP 655 atom CZ3 / van der Waals contact distance TRP 655 atom N / van der Waals contact distance TRP 655 atom CE3 / van der Waals contact distance GLY 656 atom C / van der Waals contact distance GLY 656 atom CA / van der Waals contact distance GLY 656 atom O / van der Waals contact distance, MASP-2 TYR 607 atom CD1 / van der Waals contact distance, MASP-2 PRO 606 atom O / d(C3,CA1) / d(CA1,N1)2 / d(H4,O1) / d(H4,O2) / d(O1,O2) / d(CA1,O2) / d(CA6,O1) / d(CA6,O2) / d(CA1,C5) / d(O2,H3) / d(N2,C2) / d(CA5,N2) / d(N2,C4) / d(N2,C6) / d(N2,CA3) / d(N2,O3) / d(O4,H2): unit not given beside the values", "details": "for H-bond distance to MASP-2 ASP 627 atom OD2: ASP 627 OD2; for H-bond distance to MASP-2 GLY 656 atom N: GLY 656 N; for H-bond distance to MASP-2 GLY 656 atom O: GLY 656 O; for H-bond distance to MASP-2 SER 654 atom O: SER 654 O; for H-bond distance to MASP-2 SER 657 atom O: SER 657 O; for van der Waals contact distance, MASP-2 HIS 483 atom CD2 / van der Waals contact distance, MASP-2 HIS 483 atom NE2: Table A2-1; for van der Waals contact distance, MASP-2 PHE 529 atom CD2: Table A2-3; for van der Waals contact distance, VAL 653 CG1 to compound atom: Table A2-11; for Ligand-pharmacophore element distance, pharmacophore element C2 / Ligand-pharmacophore element distance, pharmacophore element C3 / Ligand-pharmacophore element distance, pharmacophore element C4 / Ligand-pharmacophore element distance, pharmacophore element C5 / Ligand-pharmacophore element distance, pharmacophore element C6 / Ligand-pharmacophore element distance, pharmacophore element C7 / Ligand-pharmacophore element distance, pharmacophore element CA1 / Ligand-pharmacophore element distance, pharmacophore element CA2 / Ligand-pharmacophore element distance, pharmacophore element CA3 / Ligand-pharmacophore element distance, pharmacophore element CA4 / Ligand-pharmacophore element distance, pharmacophore element CA5 / Ligand-pharmacophore element distance, pharmacophore element CA6: Table A4-1; for d(C3,CA1) / d(CA1,N1)2 / d(CA1,O1) / d(CA1,O2) / d(H4,O1) / d(H4,O2) / d(O1,O2): Table A5-1 pharmacophore: distance between elements, S2/S1 region; for a(C3, CA1, O1) / a(CA1, O1, O2) / a(O1, O2, H4) / a(N1, CA1, O1) b): Table A6-1 pharmacophore angle; for a(N1, CA1, O1) b): Methyl-amino-pyridine compounds", "how_it_was_run": "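E. coli-expressed CCP2-SP (±6His); apo crystals soaked 1–2× in inhibitor-containing crystallization solution; optional 20% glycerol cryoprotection, LN2 flash-cool; synchrotron data at 1.0 wavelength; MR using 1Q3X portions, partial refinement; single pose analysed when several seen.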", "key": {"[1]": {"details": "Table A2-7: SER 628 (CB, O, OG)"}, "[2]": {"details": "Table A2-9, ARG 630, AA atoms CG, CZ"}, "[3]": {"details": "Table A5-2 pharmacophore distance, S3/S4 region"}, "[4]": {"details": "Table A7-1, between pharmacophore elements of the bound compound"}}, "data": [{"smiles": "Cc1nc(N)ccc1CNC(=O)[C@H](C)NC(=O)[C@H]1C[C@@H](Cc2ccccc2)CCN1", "note": "[compound 1353, (2R,4S)—N—((S)-1-(((6-Amino-2-methylpyridin-3-yl)methyl)amino)-1-oxopropan-2-yl)-4-benzylpiperidine-2-carboxamide]", "values": [{"measurement": "H-bond distance to MASP-2 ASP 627 atom OD2", "setting": "Table A1 (H-Bonds)", "result": 3.17}, {"measurement": "H-bond distance to MASP-2 GLY 656 atom N", "setting": "Table A1 (H-Bonds)", "result": 3.15}, {"measurement": "H-bond distance to MASP-2 GLY 656 atom O", "setting": "Table A1 (H-Bonds)", "result": 2.85}, {"measurement": "H-bond distance to MASP-2 SER 654 atom O", "setting": "Table A1 (H-Bonds)", "result": 3}, {"measurement": "H-bond distance to MASP-2 SER 657 atom O", "setting": "Table A1 (H-Bonds)", "result": 2.91}, {"measurement": "van der Waals contact distance, MASP-2 HIS 483 atom CD2", "result": 3.77}, {"measurement": "van der Waals contact distance, MASP-2 HIS 483 atom NE2", "result": 3.67}, {"measurement": "van der Waals contact distance, MASP-2 PHE 529 atom CD2", "result": 3.68}, {"measurement": "van der Waals contact distance, MASP-2 TYR 607 atom CD1", "setting": "Table A2-4", "result": 3.75}, {"measurement": "van der Waals contact distance, MASP-2 amino acid atom to compound atom", "setting": "[1]", "result": 3.66}, {"measurement": "van der Waals contact distance, MASP-2 amino acid atom to compound atom", "setting": "[2]", "result": 3.74}, {"measurement": "van der Waals contact distance, VAL 653 CG1 to compound atom", "result": 3.3}, {"measurement": "van der Waals contact distance, TRP 655 CA to compound atom", "setting": "Table A2-12", "result": 3.3}, {"measurement": "Ligand-pharmacophore element distance, pharmacophore element C2", "result": 0.58}, {"measurement": "Ligand-pharmacophore element distance, pharmacophore element C3", "result": 0.13}, {"measurement": "Ligand-pharmacophore element distance, pharmacophore element C4", "result": 0}, {"measurement": "Ligand-pharmacophore element distance, pharmacophore element C5", "result": 0}, {"measurement": "Ligand-pharmacophore element distance, pharmacophore element C6", "result": 0}, {"measurement": "Ligand-pharmacophore element distance, pharmacophore element C7", "result": 0}, {"measurement": "Ligand-pharmacophore element distance, pharmacophore element CA1", "result": 0.61}, {"measurement": "Ligand-pharmacophore element distance, pharmacophore element CA2", "result": 0.5}, {"measurement": "Ligand-pharmacophore element distance, pharmacophore element CA3", "result": 0}, {"measurement": "Ligand-pharmacophore element distance, pharmacophore element CA4", "result": 0}, {"measurement": "Ligand-pharmacophore element distance, pharmacophore element CA5", "result": 0}, {"measurement": "Ligand-pharmacophore element distance, pharmacophore element CA6", "result": 0}, {"measurement": "d(C3,CA1)", "result": 2.85}, {"measurement": "d(CA1,N1)2", "result": 1.36}, {"measurement": "d(CA1,O1)", "result": 4.38}, {"measurement": "d(CA1,O2)", "result": 3.79}, {"measurement": "d(H4,O1)", "result": 4.38}, {"measurement": "d(H4,O2)", "result": 3.72}, {"measurement": "d(O1,O2)", "result": 3.27}, {"measurement": "d(N2,C2)", "setting": "[3]", "result": 1.45}, {"measurement": "d(N2,CA2)", "setting": "[3]", "result": 6.50}, {"measurement": "d(O2,H3)", "setting": "[3]", "result": 4.10}, {"measurement": "d(O2,N2)", "setting": "[3]", "result": 2.69}, {"measurement": "a(C3, CA1, O1)", "result": 149.99}, {"measurement": "a(CA1, O1, O2)", "result": 103.61}, {"measurement": "a(O1, O2, H4)", "result": 133.22}, {"measurement": "a(N1, CA1, O1) b)", "result": 173.73}, {"measurement": "a(O1, O2, H3)", "setting": "Table A6-2 pharmacophore angle", "result": 146.74}, {"measurement": "a(O1, O2, N2)", "setting": "Table A6-2 pharmacophore angle", "result": 137.66}, {"measurement": "a(O2, N2, C2)", "setting": "Table A6-2 pharmacophore angle", "result": 130.69}, {"measurement": "a(O2, N2, CA2)", "setting": "Table A6-2 pharmacophore angle", "result": 157.19}, {"measurement": "Pharmacophore torsion angle a(C3, CA1, O1, H4)", "setting": "[4]", "result": 23.38}, {"measurement": "Pharmacophore torsion angle a(H4, O1, O2, H3)", "setting": "[4]", "result": 51.34}, {"measurement": "Pharmacophore torsion angle a(H4, O1, O2, N2)", "setting": "[4]", "result": 136.30}, {"measurement": "Pharmacophore torsion angle a(N1, CA1, O1, H4)", "setting": "[4]", "result": 3.14}, {"measurement": "Pharmacophore torsion angle a(O1, H4, O2, CA1)", "setting": "[4]", "result": "−84.72"}, {"measurement": "Pharmacophore torsion angle a(O1, O2, N2, C2)", "setting": "[4]", "result": 126.15}, {"measurement": "Pharmacophore torsion angle a(O1, O2, N2, CA2)", "setting": "Table A7-2, between pharmacophore elements of the bound compound", "result": 120.30}]}, {"smiles": "Cc1nc(N)ccc1CNC(=O)[C@H](C)NC(=O)c1cc(Cc2ccccc2)n[nH]1", "note": "[compound 1367, (S)—N-(1-(((6-Amino-2-methylpyridin-3-yl)methyl)amino)-1-oxopropan-2-yl)-3-benzyl-1H-pyrazole-5-carboxamide]", "values": [{"measurement": "H-bond distance to MASP-2 ASP 627 atom OD2", "setting": "Table A1 (H-Bonds)", "result": 3.15}, {"measurement": "H-bond distance to MASP-2 GLY 656 atom N", "setting": "Table A1 (H-Bonds)", "result": 3.15}, {"measurement": "H-bond distance to MASP-2 GLY 656 atom O", "setting": "Table A1 (H-Bonds)", "result": 2.77}, {"measurement": "H-bond distance to MASP-2 SER 628 atom O", "setting": "Table A1 (H-Bonds), SER 628 O", "result": 3.15}, {"measurement": "H-bond distance to MASP-2 SER 654 atom O", "setting": "Table A1 (H-Bonds)", "result": 3.08}, {"measurement": "H-bond distance to MASP-2 SER 657 atom O", "setting": "Table A1 (H-Bonds)", "result": 2.88}, {"measurement": "van der Waals contact distance, MASP-2 HIS 483 atom CD2", "result": 3.71}, {"measurement": "van der Waals contact distance, MASP-2 HIS 483 atom NE2", "result": 3.59}, {"measurement": "van der Waals contact distance, MASP-2 PHE 529 atom CD2", "result": 3.8}, {"measurement": "van der Waals contact distance, MASP-2 amino acid atom to compound atom", "setting": "Table A2-6: SER 611 (CB, OG), ASP 627 (CG, OD1, OD2), SER 628 (C, CA)", "result": 3.71}, {"measurement": "van der Waals contact distance, MASP-2 amino acid atom to compound atom", "setting": "[1]", "result": 3.56}, {"measurement": "van der Waals contact distance, MASP-2 amino acid atom to compound atom", "setting": "[2]", "result": 3.86}, {"measurement": "van der Waals contact distance, MASP-2 amino acid atom to compound atom", "setting": "Table A2-9 second part, ARG 630, AA atoms N, NE, NH1", "result": 3.8}, {"measurement": "van der Waals contact distance, VAL 653 CG1 to compound atom", "result": 3.35}, {"measurement": "van der Waals contact distance, SER 654 O to compound atom", "setting": "Table A2-12", "result": 3.87}, {"measurement": "van der Waals contact distance, TRP 655 CA to compound atom", "setting": "Table A2-12", "result": 3.29}, {"measurement": "van der Waals contact distance TRP 655 atom CE3", "setting": "Table A2-13, MASP-2 TRP 655 CE3, compound atom in line below", "result": 3.89}, {"measurement": "van der Waals contact distance TRP 655 atom CZ3", "setting": "Table A2-13, MASP-2 TRP 655 CZ3", "result": 3.86}, {"measurement": "Ligand-pharmacophore element distance, pharmacophore element C2", "result": 0}, {"measurement": "Ligand-pharmacophore element distance, pharmacophore element C3", "result": 0.13}, {"measurement": "Ligand-pharmacophore element distance, pharmacophore element C4", "result": 0}, {"measurement": "Ligand-pharmacophore element distance, pharmacophore element C5", "result": 0}, {"measurement": "Ligand-pharmacophore element distance, pharmacophore element C6", "result": 0}, {"measurement": "Ligand-pharmacophore element distance, pharmacophore element C7", "result": 0}, {"measurement": "Ligand-pharmacophore element distance, pharmacophore element CA1", "result": 0.5}, {"measurement": "Ligand-pharmacophore element distance, pharmacophore element CA2", "result": 0.57}, {"measurement": "Ligand-pharmacophore element distance, pharmacophore element CA3", "result": 0}, {"measurement": "Ligand-pharmacophore element distance, pharmacophore element CA4", "result": 0}, {"measurement": "Ligand-pharmacophore element distance, pharmacophore element CA5", "result": 3.27}, {"measurement": "Ligand-pharmacophore element distance, pharmacophore element CA6", "result": 0}, {"measurement": "d(C3,CA1)", "result": 2.85}, {"measurement": "d(CA1,N1)2", "result": 1.39}, {"measurement": "d(CA1,O1)", "result": 4.35}, {"measurement": "d(CA1,O2)", "result": 5.37}, {"measurement": "d(H4,O1)", "result": 4.37}, {"measurement": "d(H4,O2)", "result": 5.63}, {"measurement": "d(O1,O2)", "result": 4.72}, {"measurement": "d(O2,H3)", "setting": "[3]", "result": 2.68}, {"measurement": "a(C3, CA1, O1)", "result": 149.67}, {"measurement": "a(CA1, O1, O2)", "result": 129.48}, {"measurement": "a(O1, O2, H4)", "result": 125.36}, {"measurement": "a(N1, CA1, O1) b)", "result": 173.97}, {"measurement": "a(O1, O2, H3)", "setting": "Table A6-2 pharmacophore angle", "result": 107.78}, {"measurement": "Pharmacophore torsion angle a(C3, CA1, O1, H4)", "setting": "[4]", "result": 23.21}, {"measurement": "Pharmacophore torsion angle a(H4, O1, O2, H3)", "setting": "[4]", "result": 42.45}, {"measurement": "Pharmacophore torsion angle a(N1, CA1, O1, H4)", "setting": "[4]", "result": 1.25}, {"measurement": "Pharmacophore torsion angle a(O1, H4, O2, CA1)", "setting": "[4]", "result": "−85.54"}]}]}
